Results from patent publication US20230079439A1, “Compositions and Methods for Enhancing Beta Cell Maturation, Health and Function” (THE REGENTS OF THE UNIVERSITY OF CALIFORNIA, priority 2016, published 2023).
Ends that are not written are not given here.

Tests used:
[1] = test system: INS-1E cells; experiment: Glucose-stimulated insulin secretion (GSIS) in INS-1E cells; assay type: cell-based, rat
Protocol: FIG. 3, comprising FIG. 3A through FIG. 3D, depicts the evaluation of the biological activity of HSA-112 in INS-1E cells. FIG. 3A depicts a dose-response analysis of the effect of HSA-112 on the rate of insulin secretion in INS-1E cells. The INS-1E cells were grown and treated with increasing doses of HSA-112 for 24 h, as described in Methods. Subsequently, cells were mixed with different concentrations of HSA-112, as indicated in the graph (red columns), PEG2000 (green columns), and free peptide (blue columns) and were seeded in 12-well plates. After 24 h the cells were taken to a GSIS in the presence of 2.5 mM (weak color bars) or 16.7 mM (strong color bars) glucose. FIG. 3B depicts the time-course analysis of the effect of HSA-112 on the rate of insulin secretion in INS-1E cells. The INS-1E cells were prepared for the experiment as described above with 50 μM of HSA-112, PEG2000, or free peptide. After incubation, as indicated in the graph, the cells were taken to a GSIS as described above. FIG. 3C depicts the cell protective effect of HSA-112 under oxidative stress conditions. Cells were prepared for the experiment as described in Methods. Trolox was used as a positive control at a concentration of 100 μM. The oxidative stress was induced in the tissue culture, as described in Methods. Standard MTT analysis (also described in Methods) was used for evaluating the effect of HSA-112 on cell viability. FIG. 3D depicts INS-1E cell proliferation. Cells were prepared for the experiment as described above. After 24 h the cells were colored by trypan blue and counted as described in Methods *p<0.05, n=6. MEAN±SE.
FIG. 7, comprising FIG. 7A through FIG. 7G, depicts the evaluation of the biological activity of HSA-28P in INS-1E cells. FIG. 7A depicts dose-response analysis of the effect of HSA-28P on the rate of insulin secretion in INS-1E cells. The INS-1E cells were grown and trypsinized as described in Methods. Subsequently, cells were mixed with the indicated concentrations of HSA-28P (red columns), non-relevant peptide nanoparticles (NRPNP, green columns), and naked nanoparticles (NP, blue columns) and were seeded in 12-well plates. After 24 h the cells were taken to a GSIS in the presence of 2.5 mM (weak color bars) or 16.7 mM (strong color bars) glucose. FIG. 7B depicts time-course analysis of the effect of HSA-28P on the rate of insulin secretion in INS-1E cells. The INS-1E cells were prepared for the experiment as described above with 1.34 μM of both HSA-28P or NRPNP, and 0.76 μg/ml of NP. After incubation for the time indicated in the graph, the cells were taken to a GSIS as described in Methods. FIG. 7C depicts the measurement of insulin content. The RIA-assay was performed for INS-1E lysates. FIG. 7D depicts the Effect of HSA-28P on the cells viability under oxidative stress conditions. INS-1E cells were incubated for 24 h with a medium supplemented with HSA-28P (3 μM), or HSA-28P1/2 (1.5 μM), or NPs covered by phantom random peptide (PPNP, 3 μM), or NP (0.76 μg/ml), or HSA-28 (3 μM) and trolox, as a positive antioxidant control (1 mM). After the incubation time, 50 mU/ml of glucose oxidase (GO) was added for an additional 1.15 h. Upon completion of the experiments, a standard MTT assay was conducted as described in Methods. Cell viability is presented as a percentage in comparison to non-treated cells. FIG. 7E depicts the effect of HSA-28P on the cell proliferation rate. Experiments were conducted on INS-1E cells that were seeded in 6-well plates. INS-1E cells were treated as described in Panel D. Cells were detached by trypsin and counted as described in Methods and then were visualized with a Cells Sense Live Imaging microscope. FIG. 7F depicts light microscope images of untreated cells. FIG. 7G depicts light microscope images of cells that were treated with HSA-28P. *p<0.05, n=3. MEAN±SE. […]

[2] = test system: INS-1E cells; experiment: Cell counting (trypan blue) / proliferation and cluster formation; assay type: cell-based, rat; conditions: 24 h
Protocol: FIG. 7, comprising FIG. 7A through FIG. 7G, depicts the evaluation of the biological activity of HSA-28P in INS-1E cells. FIG. 7A depicts dose-response analysis of the effect of HSA-28P on the rate of insulin secretion in INS-1E cells. The INS-1E cells were grown and trypsinized as described in Methods. Subsequently, cells were mixed with the indicated concentrations of HSA-28P (red columns), non-relevant peptide nanoparticles (NRPNP, green columns), and naked nanoparticles (NP, blue columns) and were seeded in 12-well plates. After 24 h the cells were taken to a GSIS in the presence of 2.5 mM (weak color bars) or 16.7 mM (strong color bars) glucose. FIG. 7B depicts time-course analysis of the effect of HSA-28P on the rate of insulin secretion in INS-1E cells. The INS-1E cells were prepared for the experiment as described above with 1.34 μM of both HSA-28P or NRPNP, and 0.76 μg/ml of NP. After incubation for the time indicated in the graph, the cells were taken to a GSIS as described in Methods. FIG. 7C depicts the measurement of insulin content. The RIA-assay was performed for INS-1E lysates. […] INS-1E cells were treated as described in Panel D. Cells were detached by trypsin and counted as described in Methods and then were visualized with a Cells Sense Live Imaging microscope. […]
Cells were detached by trypsin and colored by Trypan blue. Only uncolored cells were counted. […]

“HSA-112: HSA-28 dimer formed by bridging two HSA-28 monomers via amide bond formation with active ester PEG2,000 (QQGEFLNYD-NH2; not fully specified (N-terminus); also: dimer of two HSA-28 monomers bridged via amide bonds with active ester PEG2000)” was tested, and the “duration of the increase in insulin secretion” value ([1]; 50 μM) was 24 h, the “time after which a significant increase in insulin secretion was induced” value ([1]; 50 μM) was 6 h and the “time of maximal stimulatory effect” value ([1]; 50 μM) was 18 h. The “maximal stimulatory effect on GSIS parameters” value ([1]; 50 μM, after 18 h) was “twofold elevation of GSIS parameters”, the “effect on GSIS” value ([1]; INS-1E cells, 2.5 mM or 16.7 mM glucose) was “dose-dependently increased GSIS” and the “amount of cells / proliferation rate” value [2] was “higher than that in the control dishes”.
